# Source: patent US20080004266A1, “Method for treating proliferative disorders associated with protooncogene products” (priority 2006, published 2008)
# Assays:
# [1] = system: Kasumi-1 cells (c-Kit N822K); assay: Cell survival in Kasumi-1 cells (Cell Counting Kit-8); assay type: cell-based, human; details: 72 hours
# Method: Kasumi-1 cells (20,000 cells/well) were cultured in 96-well plates and maintained at 37° C. for several hours. […] 17AAG and DMAG are Hsp90 inhibitors that are currently in clinical trials and are used here as positive controls for Hsp90 inhibition. […] Cell survival was measured with Cell Counting Kit-8 (Dojindo Laboratories, Cat # CK04).
# phosphorylated Bcr-Abl = assay: Degradation of Bcr-Abl in KU812 cells (Western blot); assay type: cell-based; details: 18 hours
# Method: KU812 chronic myeloid leukemia cells (ATCC) (2×10^6 cells), which harbor the Philadelphia chromosome that produces Bcr-Abl tyrosine kinase, were treated (0.1 μM and 1.0 μM) with either Compound 226, 17-AAG or 17-DMAG. After 18 hours, the cells were lysed with 1× lysis buffer, and a western blot was perform using anti-BCR-ABL antibody to detect phosphorylated Bcr-Abl.
# Kasumi-1 cells = details: mutation in c-kit; cited from earlier work
# NPM-ALK [2] = assay: Degradation of NPM-ALK in Karpas-299 cells (Western blot); assay type: cell-based, human; details: 18 hours
# Method: Anaplastic large-cell lymphoma cells, Karpas-299 cells (the German resource center for biological material) (2×10^6 cells), which harbor the fusion protein NPM-ALK, were treated (0.05 μM, 0.1 μM and 0.5 μM) with either Compound 226 or 17-AAG. After 18 hours and the cells were lysed with 1× lysis buffer and a western blot was perform using an anti-ALK antibody to detect and phosphorylated NPM-ALK and total NPM-ALK.
# A375 cells (B-raf V600E) = assay: Cell survival in A375 melanoma cells (Cell Counting Kit-8); assay type: cell-based, human; details: 72 hours
# Method: Human melanoma cell line, A375 (2×10^6 cells), which contains the V600E mutation in the B-raf protein that confers constitutive […] kinase activity, was obtained from American Type Culture Collection. A375 cells (20,000 cells/well) were cultured in 96-well plates and maintained at 37° C. for several hours. The cells were incubated at 37° C. for 72 hours with various concentrations of compound 226, 17AAG or 17DMAG. 17AAG and 17DMAG are Hsp90 inhibitors that are currently in clinical trials and are used here as positive controls for Hsp90 inhibition. Cell survival was measured with Cell Counting Kit-8 (Dojindo Laboratories, Cat # CK04).
# MV 4-11 cells (FLT3-ITD) = assay: Cell survival in MV-4-11 cells (Cell Counting Kit-8); assay type: cell-based, human; details: 72 hours
# Method: Human acute myelogenous leukemia (AML) cell line, MV 4-11 (ATCC #CRL-9591), was obtained from the American Type Culture Collection (ATCC; Manassas, Va., USA). Growth of this tumor cell line is dependent upon the expression of an activated form of the FLT3 tyrosine kinase receptor carrying an internal tandem duplication (ITD) mutation, which is the most common molecular defect associated with AML (K. W. Yee et al., Blood 100:2941-2949, 2002). MV 4-11 cells (20,000 cells/well) were cultured in 96-well plates and maintained at 37° C. for several hours. The cells were incubated at 37° C. for 72 hours with various concentrations of compounds of the invention, 17AAG, or DMAG. 17AAG and DMAG are Hsp90 inhibitors that are currently in clinical trials and are used here as positive controls for Hsp90 inhibition. Cell survival was measured with Cell Counting Kit-8 (Dojindo Laboratories, Cat # CK04).
# [3] = system: leukemia cell that express either wild type FLT3 or FLT3-ITD mutations; details: cited from earlier work
# V600E mutant B-raf = assay: Degradation of B-raf in A375 melanoma cells (Western blot); assay type: cell-based, human; details: 18 hours, at 0.5 mM and 0.1 mM (so in the source)
# Method: […] After 18 hours, the cells were lysed with 1× lysis buffer and a western blot was perform, and B-raf was detected with anti-B-raf antibody.
# Flt3 with Hsp90 = details: cited from earlier work
# [4] = system: Karpas-299 cells (NPM-ALK); assay: Cell survival in Karpas-299 cells (Cell Counting Kit-8); assay type: cell-based, human; details: 72 hours
# Method: Growth of this tumor cell line is dependent upon the expression of the NPM-ALK fusion protein. Karpas-299 cells (20,000 cells/well) were cultured in 96-well plates and maintained at 37° C. for several hours. The cells were incubated at 37° C. for 72 hours with various concentrations of compound 226 of the invention, 17AAG, and 17DMAG. 17AAG and 17DMAG are Hsp90 inhibitors that are currently in clinical trials and are used here as positive controls for Hsp90 inhibition. Cell survival was measured with Cell Counting Kit-8 (Dojindo Laboratories, Cat # CK04).
# [5] = system: NCI-H1975 cells (EGFR T790M and L858R); assay: Cell survival in NCI-H1975 cells (Cell Counting Kit-8); assay type: cell-based, human; details: 72 hours
# Method: Human lung cancer cell line NCI-H1975 which harbors both the T790M and the L858R mutations in EGFR was obtained from American Type Culture Collection. NCI-H1975 (10,000 cells/well) were cultured in 96-well plates and maintained at 37° C. for several hours. The cells were incubated at 37° C. for 72 hours with various concentrations of compound 226 of the invention, 17AAG or DMAG. 17AAG and DMAG are Hsp90 inhibitors that are currently in clinical trials and are used here as positive controls for Hsp90 inhibition. Cell survival was measured with Cell Counting Kit-8 (Dojindo Laboratories, Cat # CK04).
# K562 cells (Bcr-Abl) = assay: Cell survival in K562 cells (Cell Counting Kit-8); assay type: cell-based, human; details: 72 hours
# Method: Growth of this tumor cell line is dependent upon the expression of the Bcr-Abl fusion protein (C. Gambacarti-Passerini et al., Blood Cells Mol. Dis. 23:380-394, 1997). K562 cells (20,000 cells/well) were cultured in 96-well plates and maintained at 37° C. for several hours. […] 17AAG, DMAG, and Radicical are Hsp90 inhibitors that are currently in clinical trials and are used here as positive controls for Hsp90 inhibition. […] Cell survival was measured with Cell Counting Kit-8 (Dojindo Laboratories, Cat # CK04).
# NPM-ALK [6] = details: NPM-ALK expressing ALCL cells; cited from earlier work
# B-raf = details: A375 (V600E) versus CHL cells (wild type B-raf); cited from earlier work
smiles,measurement,setting,value
"C=CCNC1=C2C[C@@H](C)C[C@H](OC)[C@H](O)[C@@H](C)/C=C(\C)[C@H](OC(N)=O)[C@@H](OC)/C=C\C=C(/C)C(=O)NC(=CC1=O)C2=O [Compound 17AAG, 17-allylamino-17-desmethoxygeldanamycin]",IC50,[1],685 nM
same,degradation of phosphorylated Bcr-Abl,phosphorylated Bcr-Abl; 0.1 μM,did not degrade
same,degradation of phosphorylated Bcr-Abl,phosphorylated Bcr-Abl; 1.0 μM,partially degraded
same,apoptosis,Kasumi-1 cells,induce apoptosis
same,degradation of phosphorylated and total NPM-ALK,NPM-ALK [2]; 0.05 μM and 0.1 μM,no effect
same,degradation of phosphorylated and total NPM-ALK,NPM-ALK [2]; 0.5 μM,partial degradation
same,IC50,A375 cells (B-raf V600E),70 nM
same,IC50,MV 4-11 cells (FLT3-ITD),35 nM
same,growth of leukemia cells,[3],inhibited
same,degradation of V600E mutant B-raf,V600E mutant B-raf,did not induce significant degradation
same,association of Flt3 with Hsp90,Flt3 with Hsp90,disrupt the association of Flt3 with Hsp90
same,IC50,[4],506 nM
same,IC50,[5],446 nM
same,IC50,K562 cells (Bcr-Abl),122 nM
same,cell cycle and apoptosis,NPM-ALK [6],induce cell-cycle arrest and apoptosis
same,degradation of NPM-ALK,NPM-ALK [6],increased degradation of NPM-ALK
same,degradation of B-raf,B-raf,degraded more rapidly than in CHL cells
